Data from patent US7923204B2, “Forward mutation assay based on 5-fluorouracil resistance” (priority 2003, dated 2011).
Where a name gives a salt, the structure may show the parent alone. Read-outs that look alike come from different tables or passages of the source. Marks after values point to notes of the source that are not given here.

How the values were obtained:
[1] = system: Salmonella; settings: cited from earlier work
[2] = system: chromosome aberrations; settings: cited from earlier work
[3] = system: sister chromatid exchange; settings: cited from earlier work
[4] = system: FU100
Method: Briefly, in order to practice the disclosed mutation assay one-ml aliquots of exponentially growing bacteria are exposed to the test agent for two hours in the presence and absence of a metabolic activation system, such as a mammalian (i.e., rat, hamster or human) liver homogenate (S9-fraction or liver microsomal enzymes). The aliquots are then diluted, allowed to grow for 3 hours, and assessed for treatment-related toxicity/inhibition by optical density. The cultures are subsequently diluted a second time and grown overnight to permit full recovery from toxicity and to allow expression of the FU^R phenotype. Samples of the cultures are then plated in 384-well microtiter dishes in the presence of 2 μg/ml 5-FU and the pH-sensitive indicator bromcresol purple. Three days later positive wells containing FU^R colonies are detected by their yellow color and enumerated. Treated cultures are then compared to control plates to determine genotoxic activity.
For each mutation experiment, two frozen 1-ml aliquots of FU100 were quickly thawed in a 37° C. water bath, pelleted by centrifugation, washed to remove the DMSO, and suspended in 35 mL of MinE medium. The culture was shaken for approximately 1 hour at 37° C. until the optical density at 600 nm (OD600) reached the target density of 0.3. A 16-ml aliquot of culture was added to each of two 50-ml tubes containing 3.6 ml of a NADPH-generating system (5.6 mM glucose-6-phosphate, 4.5 mM NADP+, 5 mM sucrose, 110 mM Na2HPO4, 37 mM KCl, and 9 mM MgCl2) and either 0.4 ml rat liver S-9 or an equal volume of sodium phosphate buffer. Aliquots of these mixtures were distributed into three 12-well cluster dishes (one for exposure with S-9, one for exposure without S-9, one for controls with and without S-9), and exposed to test compounds as 1-ml aliquots for 2 hour as outlined in FIG. 1.
Following treatment, the 1-ml aliquots were transferred into 9 ml of warm MinE medium in a 50 ml tube and incubated at 37° C. on a rotary wheel for 3 hours. Next, 20 ml of medium was added to each culture tube and 0.25 ml aliquots were transferred to a 96-well plate for OD600 measurements to assess toxicity (OD Day 1). […] Bulk cultures were then incubated overnight in the dark at 30° C. to permit recovery from toxicity and to allow time for the test cells to express the FU^R phenotype.
The next day, OD600 was again assessed to adjust cell number plated on 5-FU plates (OD Day 2; 100 μl of the culture diluted with 150 μl MinE medium for OD600 measurements). For plating, a 35 μl aliquot of each culture was added to 31.4 mL of MinE medium with 2 μg/ml of 5-FU and 10 μg/ml of bromcresol purple. The mixture was then dispersed into a 384-well plate (75 μl/well) and placed at 37° C. for 3 days in a humidified incubator.
The data obtained for both survival (OD day 1), relative number of cells plated (OD day 2), and number of positive wells were imported into an Excel template.
Table 8 summarizes the criteria for positive result in 5-FU assay using the FU100 tester strain described and claimed herein. […] A positive compound was defined when two or more doses met the aforementioned criteria.

[5] = system: mouse lymphoma; settings: cited from earlier work
[6] = system: FU100; remark: listed apart in the source
[7] = system: micronucleus; settings: cited from earlier work
[8] = NTP Results Report 12 Aug. 2002
[9] = in the presence of S9 activation (+), FU100, 2 h exposure
[10] = without S9 activation (−), FU100, 2 h exposure
[11] = in the presence of S9 activation (+), approximate, first dose with greater than 50% survival by optical density on Day 1
[12] = without S9 activation (−), approximate, first dose with greater than 50% survival by optical density on Day 1
[13] = NTP Results Report 12 Aug. 2002 or cited reference (footnotes f, g, i, j)
[14] = without S9 activation (−), lowest dose tested giving a positive response
[15] = in the presence of S9 activation (+), lowest dose tested giving a positive response

| Structure (SMILES) | NTP Results: SA = Salmonella [1] | NTP Results: CA = chromosome aberrations [2] | NTP Results: SC = sister chromatid exchange [3] | Results (5-FU assay) [4] | NTP Results: CA = chromosome aberrations [2, 8] | NTP Results: SC = sister chromatid exchange [3, 8] | Results (5-FU assay) [4, 9] | Results (5-FU assay) [4, 10] | LD50 [6, 11] | LD50 [6, 12] | NTP Results: SA = Salmonella [1, 13] | other results |
| --- | --- | --- | --- | --- | --- | --- | --- | --- | --- | --- | --- | --- |
| CC(O)CCl (centres unmarked) [1-Chloro-2-propanol] | (SA+, CA+, SC+) | (SA+, CA+, SC+) | (SA+, CA+, SC+) | Pos^w |  |  |  |  |  |  |  | Lowest Positive Dose [4]: 2800 µg/mL; Results (5-FU assay) ([4]; s9): Neg |
| Oc1ccc(Cl)cc1Cl [2,4-Dichlorophenol] |  |  |  |  | − | + | Neg | Neg |  |  |  | NTP Results: ML = mouse lymphoma [5, 8]: + |
| Nc1ccc([N+](=O)[O-])cc1O [2-Amino-5-nitrophenol] |  |  |  |  | (SA+, CA+, SC+, ML+) | (SA+, CA+, SC+, ML+) | Neg | Pos | >150 µg/mL | >300 µg/mL | (SA+, CA+, SC+, ML+) | NTP Results: ML = mouse lymphoma [5, 8]: (SA+, CA+, SC+, ML+); Lowest Positive Dose [4, 14]: 2.8 µg/mL |
| Nc1ccc2cc3ccccc3cc2c1 [2-Aminoanthracene] |  |  |  |  |  | + | Pos | Pos | >2 µg/mL | >10 µg/mL | + | Lowest Positive Dose [4, 15]: 0.2 µg/mL; Lowest Positive Dose [4, 14]: 0.6 µg/mL |
| Nc1ncn([C@@H]2O[C@H](CO)[C@@H](O)[C@H]2O)c(=O)n1 [5-Azacytidine] | (SA+, CA+, SC+, ML+, MN+) | (SA+, CA+, SC+, ML+, MN+) | (SA+, CA+, SC+, ML+, MN+) | Pos |  |  |  |  | >5 µg/mL | >3 µg/mL |  | NTP Results: MN = micronucleus [7]: (SA+, CA+, SC+, ML+, MN+); NTP Results: ML = mouse lymphoma [5]: (SA+, CA+, SC+, ML+, MN+) |
| Oc1cccc2cccnc12 [8-Hydroxyquinoline] | (SA+, CA+^w, SC+, ML+, MN−) | (SA+, CA+^w, SC+, ML+, MN−) | (SA+, CA+^w, SC+, ML+, MN−) |  |  |  |  |  |  |  |  | NTP Results: MN = micronucleus [7]: (SA+, CA+^w, SC+, ML+, MN−); NTP Results: ML = mouse lymphoma [5]: (SA+, CA+^w, SC+, ML+, MN−); response in the 5-FU Assay (in words) [4]: positive compounds in toxic concentrations |
| Cl.Nc1c2ccccc2nc2ccccc12.O [9-Aminoacridine•HCl•H2O] |  |  |  |  | (SA+, CA+, SC+) | (SA+, CA+, SC+) | Pos | Pos | >9 µg/mL | >9 µg/mL | (SA+, CA+, SC+) | Lowest Positive Dose [4, 15]: 16 µg/mL; response in the 5-FU Assay (in words) ([4]; text and figure legend (FIG. 6), with or without S9): positive compounds in toxic concentrations; Lowest Positive Dose [4, 14]: 16 µg/mL |
| Cc1ccc2cc3c(ccc4ccccc43)c3c2c1CC3 [20-Methylcholanthrene] |  |  |  |  | − | + | Pos | Pos | >50 µg/mL | >50 µg/mL | + | Lowest Positive Dose [4, 15]: 0.2 µg/mL; Lowest Positive Dose [4, 14]: 5 µg/mL |
| OCc1ccccc1 [Benzyl Alcohol] |  |  |  |  | + | +^w | Neg | Neg | >500 µg/mL | >900 µg/mL | − |  |
| COc1ccc(O)c(C(C)(C)C)c1 [Butylated Hydroxyanisole] |  |  |  |  |  |  | Neg | Neg | >30 µg/mL | >30 µg/mL | (SA−, MN−) | NTP Results: MN = micronucleus [7, 8]: (SA−, MN−) |
| CC/C(=C(/CC)c1ccc(O)cc1)c1ccc(O)cc1 [Diethylstilbestrol] | (SA−, CA+, SC−, ML+) |  |  | Neg | + | − |  |  |  |  |  | NTP Results: ML = mouse lymphoma [5, 8]: + |
| C[S+](C)[O-] [Dimethyl Sulfoxide] |  |  |  |  | (SA−, CA−, SC−) | (SA−, CA−, SC−) | Neg | Neg | >5000 µg/mL | >5000 µg/mL | (SA−, CA−, SC−) |  |
| OCCO [Ethylene Glycol] | (SA−, CA−, SC−, ML−) | (SA−, CA−, SC−, ML−) | (SA−, CA−, SC−, ML−) | Neg |  |  |  |  |  |  |  | LD50 ([6]; Salmonella typhimurium): >5000 µg/mL; NTP Results: ML = mouse lymphoma [5]: (SA−, CA−, SC−, ML−) |
| CC(C)CON=O [Isobutyl Nitrite] |  |  |  | Pos | (SA+, CA+, SC+, MN+) | (SA+, CA+, SC+, MN+) |  |  |  |  | (SA+, CA+, SC+, MN+) | NTP Results: MN = micronucleus [7, 8]: (SA+, CA+, SC+, MN+); response in the 5-FU Assay (in words) [4]: positive compounds in toxic concentrations |
| CN(C)N=O [N-Nitrosodimethylamine] |  |  |  |  | (SA+, CA+, SC+) | (SA+, CA+, SC+) | Pos | Neg | >2000 µg/mL | >2000 µg/mL | (SA+, CA+, SC+) | Lowest Positive Dose [4, 15]: 360 µg/mL |
| Oc1ccccc1 [Phenol] | (SA−, CA+, SC+, ML+) | (SA−, CA+, SC+, ML+) | (SA−, CA+, SC+, ML+) | Neg |  |  |  |  |  |  |  | NTP Results: ML = mouse lymphoma [5]: (SA−, CA+, SC+, ML+); response in the 5-FU Assay (in words) [4]: negative/toxic |
| COC(=O)[C@H]1[C@H]2C[C@@H]3c4[nH]c5cc(OC)ccc5c4CCN3C[C@H]2C[C@@H](OC(=O)c2cc(OC)c(OC)c(OC)c2)[C@@H]1OC [Reserpine] |  |  |  |  |  | − | Neg | Neg | >1500 µg/mL | >1500 µg/mL | − | NTP Results: MN = micronucleus [7, 8]: −; NTP Results: ML = mouse lymphoma [5, 8]: − |
| C=CCc1ccc2c(c1)OCO2 [Safrole] | (SA−, CA−, SC+ ML+) | (SA−, CA−, SC+ ML+) | (SA−, CA−, SC+ ML+) | Neg |  |  |  |  | >50 µg/mL | >60 µg/mL |  | NTP Results: ML = mouse lymphoma [5]: (SA−, CA−, SC+ ML+) |
| CN(C)[C@@H]1C(O)=C(C(N)=O)C(=O)[C@@]2(O)C(O)=C3C(=O)c4c(O)cccc4[C@@](C)(O)[C@H]3C[C@@H]12 [Tetracycline HCl] |  |  |  | Neg | − | − |  |  | >0.1 µg/mL | >0.1 µg/mL | − |  |
| O=[N+]([O-])c1ccc(O)cc1 [p-Nitrophenol] |  |  |  |  | + | − | Neg | Neg | >50 µg/mL | >50 µg/mL | − |  |
